Laboratory results as given in patent publication US11584744B2 (UNIVERSITY OF WASHINGTON, priority 2017, dated 2023).
In brackets after ≈: the same amount, converted by molar mass. Several values for one entry are separate records, joined by “and”; a condition that tells them apart may be missing. Equal values may be shown once. Read-outs that look alike come from different tables or passages of the source.

Tests used:
[1] = system: S. aureus MRSA (ATCC 33591); test: MIC susceptibility testing; type: cell-based, Staphylococcus aureus; conditions: MRSA ATCC33591; for MIC: Staphylococcus aureus, read-out: (G) MRSA (ATCC33591) MIC
Summary of the method: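 CLSI broth microdilution with two-fold compound dilutions, in triplicate; cells added in medium at 1×10^6 CFUs/mL, DMSO ≤0.5%. Media: MHB for S. aureus, CA-MHB for E. coli and E. faecium, CA-MHB plus 3% laked horse blood for S. pyogenes (5% CO2).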

[2] = system: S. aureus MSSA (ATCC 29213); test: MIC susceptibility testing; type: cell-based, Staphylococcus aureus; conditions: S. aureus ATCC 29213; for MIC: Staphylococcus aureus, read-out: (F) S. aureus (ATCC 29213) MIC
[3] = system: E. faecium VRE (ATCC 51559); test: MIC susceptibility testing; type: cell-based, Enterococcus faecium; conditions: E. faecium ATCC 51559; for MIC: Enterococcus faecium, read-out: (I) E. faecium (ATCC 51559) MIC
From the text: Media and culture conditions. Mueller Hinton broth (MHB), cation adjusted Mueller Hinton broth (CA-MHB), and Brain Heart Infusion broth (BHI) were purchased from Becton Dickinson (Franklin Lakes, N.J.). Tryptic soy agar (TSA) plates, TSA with 5% sheep blood plates, and CA-MHB with 3% laked horse blood were purchased from Remel (San Diego, Calif.). MHB was used to assay all Staphylococcus aureus strains. CA-MHB was used for Staphylococcus epidermidis, Enterococcus faecalis, Enterococcus faecium, Escherichia coli, and Pseudomonas aeruginosa. CA-MHB supplemented with 3% laked horse blood was used for Streptococcus pneumoniae and Streptococcus pyogenes. Staphylococcus, Enterococcus, Escherichia, and Pseudomonas strains were cultured at 37° C. with ambient air. Streptococcus strains were cultured in 37° C. with 5% CO2. Separate conditions for radiolabeled precursor uptake assays are described below.
Susceptibility testing: Minimum inhibitory concentration (MIC) determinations were performed in triplicate in 96-well round bottom microtiter plates (Corning, Corning N.Y.) as described by the Clinical and Laboratory Standards Institute (CLSI). Serial two-fold dilutions of compounds were added to plates in 50 μL volumes. An additional 50 μL of media containing bacterial cells (1×10^6 CFUs/mL) was then added to each well. Maximum DMSO concentrations were 0.5%. Plates were incubated at 37° C. for at least 18 h before reading the susceptibility result by optical absorbance (OD600) using a BioTek ELx800. The lowest concentration causing ≥90% growth inhibition compared to the untreated control was recorded as the MIC (and also corresponded to the visual MIC). MICs were measured at least twice and the higher value (if different) was recorded herein.

[4] = biological target: T1, MetRS (T. brucei) (Trypanosoma brucei brucei, UniProt Q38C91); test: MetRS (T. brucei) enzyme inhibition; type: biochemical
T1 sequence (Q38C91 1-773): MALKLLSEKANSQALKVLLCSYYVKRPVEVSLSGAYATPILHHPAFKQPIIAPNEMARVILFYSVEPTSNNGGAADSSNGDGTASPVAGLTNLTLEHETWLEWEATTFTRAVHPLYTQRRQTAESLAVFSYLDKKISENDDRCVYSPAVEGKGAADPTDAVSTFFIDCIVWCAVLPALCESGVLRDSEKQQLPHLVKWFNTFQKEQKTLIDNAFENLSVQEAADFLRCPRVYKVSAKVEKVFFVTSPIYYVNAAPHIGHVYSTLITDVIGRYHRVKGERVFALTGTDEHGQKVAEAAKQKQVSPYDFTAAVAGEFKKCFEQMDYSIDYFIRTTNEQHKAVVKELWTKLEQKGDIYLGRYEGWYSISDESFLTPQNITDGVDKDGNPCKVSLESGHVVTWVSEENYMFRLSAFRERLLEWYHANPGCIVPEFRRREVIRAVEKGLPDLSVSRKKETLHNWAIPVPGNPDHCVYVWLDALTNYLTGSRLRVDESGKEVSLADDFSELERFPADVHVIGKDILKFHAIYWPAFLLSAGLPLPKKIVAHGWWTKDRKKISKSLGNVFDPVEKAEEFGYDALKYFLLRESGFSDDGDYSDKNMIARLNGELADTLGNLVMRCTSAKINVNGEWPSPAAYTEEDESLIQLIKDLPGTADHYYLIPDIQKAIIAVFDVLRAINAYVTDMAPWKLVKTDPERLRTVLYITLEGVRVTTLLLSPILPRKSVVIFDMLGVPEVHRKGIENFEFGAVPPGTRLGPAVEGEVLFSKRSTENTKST

[5] = biological target: MetRS (C. parvum) (Cryptosporidium parvum, UniProt Q5CVN0); test: MetRS (C. parvum) enzyme inhibition; type: biochemical; conditions: read-out: (C) MetRS (C. parvum) IC50
Sequence of MetRS (C. parvum) (Q5CVN0 entry or part of it): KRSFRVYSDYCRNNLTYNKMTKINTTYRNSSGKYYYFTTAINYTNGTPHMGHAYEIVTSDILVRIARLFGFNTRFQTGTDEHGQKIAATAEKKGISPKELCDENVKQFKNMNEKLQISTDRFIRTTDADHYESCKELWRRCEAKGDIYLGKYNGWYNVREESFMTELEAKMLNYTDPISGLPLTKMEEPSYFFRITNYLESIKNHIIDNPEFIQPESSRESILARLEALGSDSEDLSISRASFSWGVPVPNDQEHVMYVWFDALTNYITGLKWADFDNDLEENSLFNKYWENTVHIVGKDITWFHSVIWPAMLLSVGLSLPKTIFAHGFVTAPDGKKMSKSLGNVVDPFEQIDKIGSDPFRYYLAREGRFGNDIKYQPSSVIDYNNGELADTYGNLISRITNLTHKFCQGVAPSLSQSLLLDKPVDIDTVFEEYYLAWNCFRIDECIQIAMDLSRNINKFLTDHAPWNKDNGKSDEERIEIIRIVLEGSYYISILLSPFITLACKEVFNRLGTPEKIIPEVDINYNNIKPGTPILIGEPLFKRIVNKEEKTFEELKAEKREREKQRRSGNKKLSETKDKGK

[6] = system: T. brucei; test: T. brucei growth inhibition; type: cell-based, Trypanosoma brucei; conditions: read-out: (D) T. brucei EC50
[7] = system: T. cruzi; test: T. cruzi growth inhibition; type: cell-based, Trypanosoma cruzi; conditions: read-out: (E) T. cruzi EC50
[8] = system: C. parvum; test: C. parvum growth inhibition; type: cell-based, Cryptosporidium parvum; conditions: Cryptosporidium parvum; read-out: (J) C. parvum EC50

SMILES	MIC [1] [µg/mL]	(F) S. aureus (ATCC 29213) MIC [2]	MIC [2] [µg/mL]	MIC [3] [µg/mL]	IC50 [4] [nM]	IC50 [5] [nM]	EC50 ([6]; Trypanosoma brucei) [nM]	EC50 [6] [nM]	EC50 ([7]; Trypanosoma cruzi) [nM]	EC50 [8] [nM]	(I) E. faecium (ATCC 51559) MIC [3] [µg/mL]	EC50 [7] [nM]	MIC ([1]; ATCC33591|MRSA) [µg/mL]	MIC ([2]; ATCC29213|MSSA) [µg/mL]	MIC ([3]; ATCC51559|VRE) [µg/mL]	(G) MRSA (ATCC33591) MIC [1] [µg/mL]
COc1cc(Cl)c(-c2cnn3c2CN(Cc2nc4nc(Cl)ccc4[nH]2)CC3)cc1OC [Compound 2205, 5-chlor0-2-((3-(2-chloro-4,5-dimethoxyphenyl)-6,7-dihydropyrazolo[1,5-a]pyrazin-5(4H)-yl)methyl)-1H-imidazo[4,5-b]pyridine]	0.265 (≈ 0.577 µM)	0.441, μg/ml and 0.450 μg/ml	0.652 (≈ 1.42 µM)	0.0839 (≈ 0.183 µM)	< 40	65.2	12.4	–	109	> 2000	–	–	–	–	–	–
CC(C)(O)Cn1c(Cc2ccc(Cl)cc2Cl)cn(Cc2nc3ccc(Cl)nc3[nH]2)c1=O [Compound 2211, 1-((5-chloro-3H-imidazo[4,5-b]pyridin-2-yl)methyl)-4-(2,4-dichlorobenzyl)-3-(2-hydroxy-2-methylpropyl)-1,3-dihydro-2H-imidazol-2-one]	0.489 (≈ 1.02 µM)	0.590 µg/mL	0.493 (≈ 1.03 µM)	0.389 (≈ 0.809 µM)	< 40	50.2	< 0.91	1.16	21.7	1170	0.281	22.1	–	–	–	–
O=C(c1cn(Cc2nc3ccc(Cl)nc3[nH]2)c(=O)[nH]1)c1ccc(Cl)cc1Cl [Compound 2201, 1-({5-chloro-1H-imidazo[4,5-b]pyridin-2-yl}methyl)-4-(2,4-dichlorobenzoyl)-2,3-dihydro-1H-imidazol-2-one]	0.701 (≈ 1.66 µM)	0.946 µg/mL	0.863 (≈ 2.04 µM)	0.979 (≈ 2.32 µM)	< 40	72.2	4.88	–	207	> 2000	–	–	–	–	–	–
COc1ccc(-c2nccc3nn(Cc4nc5nc(Cl)ccc5[nH]4)cc23)c(Cl)c1 [Compound 2247, 2-({5-chloro-1H-imidazo[4,5-b]pyridin-2-yl}methyl)-4-(2-chloro-4-methoxyphenyl)-2H-pyrazolo[4,3-c]pyridine]	1.46 (≈ 3.43 µM)	1.43 µg/mL	1.18 (≈ 2.77 µM)	1.08 (≈ 2.54 µM)	–	218	200	–	1650	> 2000	–	–	–	–	–	1.58
COc1ccc(-c2cccc3c2CN(Cc2nc4cc(Cl)ccc4[nH]2)C3=O)c(Cl)c1 [Compound 2232, 2-((5-chloro-1H-benzo[d]imidazol-2-yl)methyl)-4-(2-chloro-4-methoxyphenyl)isoindolin-1-one]	0.448 (≈ 1.02 µM)	–	–	0.415 (≈ 0.947 µM)	–	53.9	71.3	–	244	> 2000	–	–	–	–	–	–
COc1ccc(-c2cccc3c2CN(Cc2nc4c(C#N)c(Cl)ccc4[nH]2)C3)c(Cl)c1 [Compound 2229, 5-chlor0-2-((4-(2-chloro-4-methoxyphenyl)isoindolin-2-yl)methyl)-1H-benzo[d]imidazole-4-carbonitrile]	0.762 (≈ 1.7 µM)	–	0.926 (≈ 2.06 µM)	0.327 (≈ 0.728 µM)	–	84.7	91.4	–	650	1980	–	–	–	–	–	–

Now those with a lower IC50 [5], led by results:

MIC [1] [µg/mL]	(F) S. aureus (ATCC 29213) MIC [2]	MIC [2] [µg/mL]	MIC [3] [µg/mL]	IC50 [4] [nM]	IC50 [5] [nM]	EC50 ([6]; Trypanosoma brucei) [nM]	EC50 [6] [nM]	EC50 ([7]; Trypanosoma cruzi) [nM]	EC50 [8] [nM]	(I) E. faecium (ATCC 51559) MIC [3] [µg/mL]	EC50 [7] [nM]	MIC ([1]; ATCC33591|MRSA) [µg/mL]	MIC ([2]; ATCC29213|MSSA) [µg/mL]	MIC ([3]; ATCC51559|VRE) [µg/mL]	(G) MRSA (ATCC33591) MIC [1] [µg/mL]	SMILES
1.32 (≈ 3.07 µM)	0.898 µg/mL	1.69 (≈ 3.94 µM)	0.467 (≈ 1.09 µM)	< 40	< 40	29.3	35	213	–	–	–	–	–	–	–	COc1ccc(-c2cnn3c2CN(Cc2nc4nc(Cl)ccc4[nH]2)CC3)c(Cl)c1 [Compound 2172, 5-chlor0-2-((3-(2-chloro-4-methoxyphenyl)-6,7-dihydropyrazolo[1,5-a]pyrazin-5(4H)-yl)methyl)-1H-imidazo[4,5-b]pyridine]
0.52 (≈ 1.15 µM)	0.574 µg/mL	0.422 (≈ 0.932 µM)	0.272 (≈ 0.601 µM)	< 40	< 40	2.12	–	63.4	1910	–	71.3	–	–	–	–	O=c1n(Cc2nc3ccc(Cl)nc3[nH]2)cc(Cc2ccc(Cl)cc2Cl)n1CCO [Compound 2213, 1-({5-chloro-1H-imidazo[4,5-b]pyridin-2-yl}methyl)-4-[(2,4-dichlorophenyl)-methyl]-3-(2-hydroxyethyl)-2,3-dihydro-1H-imidazol-2-one]
–	2.21 µg/mL	–	–	–	< 40	–	–	541	> 2000	0.555	–	1.57 (≈ 3.08 µM)	1.66 (≈ 3.26 µM)	0.531 (≈ 1.04 µM)	–	CCOC(=O)Nn1c(C(=O)c2ccc(Cl)cc2Cl)cn(Cc2nc3ccc(Cl)nc3[nH]2)c1=O [Compound 2244]
1.8 (≈ 3.79 µM)	1.53 µg/mL	2.4 (≈ 5.05 µM)	0.28 (≈ 0.589 µM)	< 40	< 40	–	–	297	> 2000	–	–	–	–	–	–	COc1ccc(Cc2cn(Cc3nc4nc(Cl)ccc4[nH]3)c(=O)n2CC(C)(C)N)c(Cl)c1 [Compound 2208, 3-(2-amin0-2-methylpropyl)-1-({5-chloro-1H-imidazo[4,5-b]pyridin-2-yl}methyl)-4-[(2-chloro-4-methoxyphenyl)methyl]-2,3-dihydro-1H-imidazol-2-one]
> 8	–	–	1.06 (≈ 2.21 µM)	–	< 40	9.17	7.98	2100	> 2000	–	–	–	–	–	–	NC(=O)Cn1c(C(=O)c2ccc(Cl)cc2Cl)cn(Cc2nc3ccc(Cl)nc3[nH]2)c1=O [Compound 2234, 2-[3-({5-chloro-1H-imidazo[4,5-b]pyridin-2-yl}methyl)-5-(2,4-dichlorobenzoyl)-2-oxo-2,3-dihydro-1H-imidazol-1-yl]acetamide]
0.482 (≈ 0.949 µM)	–	1.07 (≈ 2.11 µM)	0.175 (≈ 0.345 µM)	–	< 40	< 0.91	1.47	819	> 2000	–	–	–	–	–	–	CCNC(=O)Cn1c(C(=O)c2ccc(Cl)cc2Cl)cn(Cc2nc3nc(Cl)ccc3[nH]2)c1=O [Compound 2227, 2-[3-({5-chloro-1H-imidazo[4,5-b]pyridin-2-yl}methyl)-5-(2,4-dichlorobenzoyl)-2-oxo-2,3-dihydro-1H-imidazol-1-yl]—N-ethylacetamide]
